Results published in patent US20100092526A1, “NANOEMULSION THERAPEUTIC COMPOSITIONS AND METHODS OF USING THE SAME” (NanoBio Corporation, priority 2008, published 2010).
Values after ≈ are worked out from the molar mass of the structure shown.

What was measured:
Format in all cases: cell-based
Haemophilus influenzae = assay: Susceptibility (MIC/MBC) of H. influenzae clinical isolates; conditions: for MIC / MIC90: Haemophilus influenzae; for MIC90 / MIC Range: H. influenzae isolates of Table 6
[1] = tested on: methicillin-resistant Staphylococcus aureus (MRSA); assay: Susceptibility (MIC/MBC) of MRSA clinical isolates; conditions: Staphylococcus aureus; MRSA isolates; read-out: MIC90
Acinetobacter baumannii = assay: MIC/MBC of nanoemulsions against gram-negative isolates (CLSI, alamar blue); conditions: Acinetobacter baumannii (n = 5); for MIC50: nanoemulsions in the presence of 5 mM EDTA
Pseudomonas aeruginosa = assay: as above; conditions: Pseudomonas aeruginosa (n = 5); for MIC50 / MIC Range: nanoemulsions in the presence of 5 mM EDTA
[2] = tested on: Stenotrophomonas maltophilia; assay: as above; conditions: Stenotrophomonas maltophilia (n = 5); nanoemulsions in the presence of 5 mM EDTA
Burkholderia cepacia = assay: as above; conditions: Burkholderia cepacia (n = 5), nanoemulsions in the presence of 5 mM EDTA; for MIC Range: in µg/mL
Klebsiella pneumoniae = assay: as above; conditions: Klebsiella pneumoniae (n = 5); for MIC50 / MIC Range: nanoemulsions in the presence of 5 mM EDTA; for MIC Range: in µg/mL
Proteus mirabilis = assay: as above; conditions: Proteus mirabilis (n = 5); for MIC50 / MIC Range: nanoemulsions in the presence of 5 mM EDTA
Escherichia coli = assay: as above; conditions: Escherichia coli (n = 5)
[3] = strain 30, nanoemulsion values as μg CPC/ml or μg BA/ml
[4] = strain 32, nanoemulsion values as μg CPC/ml or μg BA/ml
[5] = strain 33, nanoemulsion values as μg CPC/ml or μg BA/ml
[6] = strain 34, nanoemulsion values as μg CPC/ml or μg BA/ml
[7] = strain 35, nanoemulsion values as μg CPC/ml or μg BA/ml
[8] = strain 36, nanoemulsion values as μg CPC/ml or μg BA/ml
[9] = strain 37, nanoemulsion values as μg CPC/ml or μg BA/ml
[10] = strain 38, nanoemulsion values as μg CPC/ml or μg BA/ml
[11] = strain 41, nanoemulsion values as μg CPC/ml or μg BA/ml
[12] = strain 42, nanoemulsion values as μg CPC/ml or μg BA/ml
[13] = strain 49247, nanoemulsion values as μg CPC/ml (P4075EC, W205EC) or μg BA/ml (W205GBA2)
[14] = nanoemulsion values as μg CPC/ml or μg BA/ml
[15] = nanoemulsions in the presence of 5 mM EDTA

Compound	MIC (Haemophilus influenzae; [3])	MIC (Haemophilus influenzae; [4])	MIC (Haemophilus influenzae; [5])	MIC (Haemophilus influenzae; [6])	MIC (Haemophilus influenzae; [7])	MIC (Haemophilus influenzae; [8])	MIC (Haemophilus influenzae; [9])	MIC (Haemophilus influenzae; [10])	MIC (Haemophilus influenzae; [11])	MIC (Haemophilus influenzae; [12])	MIC (Haemophilus influenzae; [13])	MIC90 (Haemophilus influenzae; [14])	MIC Range (Haemophilus influenzae; [14])	% resistant (Acinetobacter baumannii)	% susceptible (Acinetobacter baumannii)	MIC50 (Acinetobacter baumannii)	% resistant (Pseudomonas aeruginosa)	% susceptible (Pseudomonas aeruginosa)	MIC50 (Pseudomonas aeruginosa)	MIC50 [2]	other results
CC1(C)S[C@@H]2[C@H](NC(=O)[C@H](N)c3ccccc3)C(=O)N2[C@H]1C(=O)O [ampicillin]	0.25 mg/L (≈ 0.715 µM)	32 mg/L (≈ 91.6 µM)	0.25 mg/L (≈ 0.715 µM)	> 32 mg/L	0.25 mg/L (≈ 0.715 µM)	0.125 mg/L (≈ 0.358 µM)	> 32 mg/L	0.25 mg/L (≈ 0.715 µM)	> 32 mg/L	> 32 mg/L	4 mg/L (≈ 11.4 µM)	> 32 mg/L	–	–	–	–	–	–	–	–	–
CC[C@H]1OC(=O)[C@H](C)[C@@H](O[C@H]2C[C@@](C)(OC)[C@@H](O)[C@H](C)O2)[C@H](C)[C@@H](O[C@@H]2O[C@H](C)C[C@H](N(C)C)[C@H]2O)[C@](C)(O)C[C@@H](C)CN(C)[C@H](C)[C@@H](O)[C@]1(C)O [azithromycin]	2 mg/L (≈ 2.67 µM)	8 mg/L (≈ 10.7 µM)	1 mg/L (≈ 1.34 µM)	1 mg/L (≈ 1.34 µM)	1 mg/L (≈ 1.34 µM)	2 mg/L (≈ 2.67 µM)	1 mg/L (≈ 1.34 µM)	1 mg/L (≈ 1.34 µM)	2 mg/L (≈ 2.67 µM)	1 mg/L (≈ 1.34 µM)	1 mg/L (≈ 1.34 µM)	2 mg/L (≈ 2.67 µM)	1 to 8 mg/L	–	–	–	–	–	–	–	susceptibility of the majority of isolates by MIC90 values (Haemophilus influenzae; H. influenzae): susceptible
CCC[C@@H]1C[C@@H](C(=O)N[C@@H]([C@H]2O[C@H](SC)[C@H](O)[C@@H](O)[C@H]2O)[C@H](C)Cl)N(C)C1 [clindamycin]	16 mg/L (≈ 37.6 µM)	8 mg/L (≈ 18.8 µM)	16 mg/L (≈ 37.6 µM)	16 mg/L (≈ 37.6 µM)	8 mg/L (≈ 18.8 µM)	16 mg/L (≈ 37.6 µM)	4 mg/L (≈ 9.41 µM)	16 mg/L (≈ 37.6 µM)	8 mg/L (≈ 18.8 µM)	4 mg/L (≈ 9.41 µM)	8 mg/L (≈ 18.8 µM)	16 mg/L (≈ 37.6 µM)	4 to 16 mg/L	–	–	–	–	–	–	–	MIC90 [1]: > 64 mg/L
Gentamicin	–	–	–	–	–	–	–	–	–	–	–	–	–	20.0%	80.0%	≤ 2 mg/L	0.0%	100.0%	≤ 2 mg/L	> 8 mg/L	MIC Range (Pseudomonas aeruginosa): <=2-4 ^; MIC50 (Burkholderia cepacia): > 8 mg/L; MIC Range (Burkholderia cepacia): >8; % resistant (Klebsiella pneumoniae): 0.0%; % susceptible (Klebsiella pneumoniae): 100.0%; MIC50 (Klebsiella pneumoniae): ≤ 2 mg/L; MIC Range (Klebsiella pneumoniae): <=2; % resistant (Proteus mirabilis): 0.0%; % susceptible (Proteus mirabilis): 100.0%; MIC50 (Proteus mirabilis): ≤ 2 mg/L; MIC Range (Proteus mirabilis; in µg/mL): <=2; % resistant (Escherichia coli): 20.0%; % susceptible (Escherichia coli): 80.0%; MIC50 (Escherichia coli; [15]): ≤ 2 mg/L
Piperacillin/tazobactam	–	–	–	–	–	–	–	–	–	–	–	–	–	20.0%	80.0%	2 mg/L	0.0%	100.0%	2 mg/L	> 64 mg/L	MIC Range (Pseudomonas aeruginosa; in µg/mL): 2-16; MIC50 (Burkholderia cepacia): 4 mg/L; MIC Range (Burkholderia cepacia): 2-32; % resistant (Klebsiella pneumoniae): 0.0%; % susceptible (Klebsiella pneumoniae): 80.0%; MIC50 (Klebsiella pneumoniae): 2 mg/L; MIC Range (Klebsiella pneumoniae): 1-64; % resistant (Proteus mirabilis): 0.0%; % susceptible (Proteus mirabilis): 100.0%; MIC50 (Proteus mirabilis): ≤ 0.5 mg/L; MIC Range (Proteus mirabilis): <=0.5-1 ^; % resistant (Escherichia coli): 0.0%; % susceptible (Escherichia coli): 100.0%; MIC50 (Escherichia coli; [15]): 2 mg/L; MIC Range (Escherichia coli; nanoemulsions in the presence of 5 mM EDTA, in µg/mL): 1-8
